# Reference: US9694016B2 (Novartis AG, priority 2013, dated 2017)
# Target: b-Raf (V600E) (Homo sapiens (Human), UniProt P15056, V600E)
# Details: read-out: b-Raf IC-50; Table 2; AlphaScreen, 3 hours reaction
# Chain of b-Raf (V600E) (P15056 whole entry V600E): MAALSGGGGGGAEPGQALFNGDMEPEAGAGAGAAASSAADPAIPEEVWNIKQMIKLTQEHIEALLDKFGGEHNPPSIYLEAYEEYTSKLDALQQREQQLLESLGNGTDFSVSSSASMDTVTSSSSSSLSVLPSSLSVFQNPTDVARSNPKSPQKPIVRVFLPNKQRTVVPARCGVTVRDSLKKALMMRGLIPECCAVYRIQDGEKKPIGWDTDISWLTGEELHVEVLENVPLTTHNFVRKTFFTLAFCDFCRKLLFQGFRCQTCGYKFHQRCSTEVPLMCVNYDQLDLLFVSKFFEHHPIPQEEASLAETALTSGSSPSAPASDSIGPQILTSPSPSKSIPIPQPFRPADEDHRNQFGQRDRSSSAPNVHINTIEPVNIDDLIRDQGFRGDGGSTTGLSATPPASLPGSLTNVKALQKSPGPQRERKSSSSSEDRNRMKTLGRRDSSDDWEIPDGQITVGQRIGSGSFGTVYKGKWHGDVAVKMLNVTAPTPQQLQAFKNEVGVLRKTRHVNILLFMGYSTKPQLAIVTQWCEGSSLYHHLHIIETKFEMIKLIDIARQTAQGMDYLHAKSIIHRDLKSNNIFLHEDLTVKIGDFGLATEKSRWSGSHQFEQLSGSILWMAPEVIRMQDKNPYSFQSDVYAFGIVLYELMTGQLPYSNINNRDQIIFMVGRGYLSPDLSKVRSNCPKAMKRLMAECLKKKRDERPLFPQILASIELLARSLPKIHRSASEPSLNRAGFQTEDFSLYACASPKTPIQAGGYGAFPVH
row,Structure (SMILES),IC50 [nM]
1,"Cc1ncc(NC(=O)c2cccc(C(F)(F)F)c2)cc1-c1cc(N2CCOCC2)c(=O)n(CCC#N)c1 [Example 333, N-(1′-(2-cyanoethyl)-2-methyl-5′-morpholino-6′-oxo-1′,6′-dihydro-[3,3′-bipyridin]-5-yl)-3-(trifluoromethyl)benzamide]",11.4
2,"Cc1ccc(NC(=O)c2ccnc(C(C)(F)F)c2)cc1-c1cc(N2CCOCC2)c(=O)n(CCC#N)c1 [Example 334, N-(3-(1-(2-cyanoethyl)-5-morpholino-6-oxo-1,6-dihydropyridin-3-yl)-4-methylphenyl)-2-(1,1-difluoroethyl)isonicotinamide]",2.3
3,"Cc1ccc(NC(=O)c2ccnc(C(C)(C)C#N)c2)cc1-c1cc(N2CCOCC2)c(=O)n(CCC#N)c1 [Example 335, N-(3-(1-(2-cyanoethyl)-5-morpholino-6-oxo-1,6-dihydropyridin-3-yl)-4-methylphenyl)-2-(2-cyanopropan-2-yl)isonicotinamide]",4.4
4,"Cc1ccc(NC(=O)c2cccc(C(F)F)c2)cc1-c1cc(N2CCOCC2)c(=O)n(CCC#N)c1 [Example 336, N-(3-(1-(2-cyanoethyl)-5-morpholino-6-oxo-1,6-dihydropyridin-3-yl)-4-methylphenyl)-3-(difluoromethyl)benzamide]",5.5
5,"Cc1ccc(NC(=O)c2cccc(C(F)(F)F)c2)cc1-c1cc(N2CCOCC2)c(=O)n(CC2(C)COC2)c1 [Example 337, N-(4-methyl-3-(1-((3-methyloxetan-3-yl)methyl)-5-morpholino-6-oxo-1,6-dihydropyridin-3-yl)phenyl)-3-(trifluoromethyl)benzamide]",12.5
6,"Cc1ccc(NC(=O)c2ccnc(C(C)(C)C#N)c2)cc1-c1cc(N2CCOCC2)c(=O)n(CC2(C)COC2)c1 [Example 338, 2-(2-cyanopropan-2-yl)-N-(4-methyl-3-(1-((3-methyloxetan-3-yl)methyl)-5-morpholino-6-oxo-1,6-dihydropyridin-3-yl)phenyl)isonicotinamide]",9000
7,"COc1ccc(C(=O)Nc2ccc(C)c(-c3cc(N4CCOCC4)c(=O)n(C)c3)c2)cc1C(F)(F)F [Example 339, 4-methoxy-N-(4-methyl-3-(1-methyl-5-morpholino-6-oxo-1,6-dihydropyridin-3-yl)phenyl)-3-(trifluoromethyl)benzamide]",1.8
8,"Cc1ccc(NC(=O)c2cccc(OC(F)(F)F)c2)cc1-c1cc(N2CCOCC2)c(=O)n(C)c1 [Example 340, N-(4-methyl-3-(1-methyl-5-morpholino-6-oxo-1,6-dihydropyridin-3-yl)phenyl)-3-(trifluoromethoxy)benzamide]",36.4
9,"CCC(F)(F)c1cc(C(=O)Nc2ccc(C)c(-c3cc(N4CCOCC4)c(=O)n(C)c3)c2)ccn1 [Example 341, 2-(1,1-difluoropropyl)-N-(4-methyl-3-(1-methyl-5-morpholino-6-oxo-1,6-dihydropyridin-3-yl)phenyl)isonicotinamide]",2
10,"CCOc1cc(C(=O)Nc2ccc(C)c(-c3cc(N4CCOCC4)c(=O)n(C)c3)c2)ccc1F [Example 344, 3-ethoxy-4-fluoro-N-(4-methyl-3-(1-methyl-5-morpholino-6-oxo-1,6-dihydropyridin-3-yl)phenyl)benzamide]",3.1
11,"Cc1ccc(NC(=O)c2cccc(OC(C)C)c2)cc1-c1cc(N2CCOCC2)c(=O)n(C)c1 [Example 345, 3-isopropoxy-N-(4-methyl-3-(1-methyl-5-morpholino-6-oxo-1,6-dihydropyridin-3-yl)phenyl)benzamide]",1.6
12,"Cc1ccc(NC(=O)c2cccc(C3(C#N)CC3)c2Cl)cc1-c1cc(N2CCOCC2)c(=O)n(C)c1 [Example 346, 2-chloro-3-(1-cyanocyclopropyl)-N-(4-methyl-3-(1-methyl-5-morpholino-6-oxo-1,6-dihydropyridin-3-yl)phenyl)benzamide]",8.7
13,"Cc1ccc(NC(=O)c2ccnc(C(C)C)c2)cc1-c1cc(N2CCOCC2)c(=O)n(C)c1 [Example 348, 2-isopropyl-N-(4-methyl-3-(1-methyl-5-morpholino-6-oxo-1,6-dihydropyridin-3-yl)phenyl)isonicotinamide]",2.7
14,"Cc1ccc(NC(=O)c2cccc(-c3nnco3)c2)cc1-c1cc(N2CCOCC2)c(=O)n(C)c1 [Example 349, N-(4-methyl-3-(1-methyl-5-morpholino-6-oxo-1,6-dihydropyridin-3-yl)phenyl)-3-(1,3,4-oxadiazol-2-yl)benzamide]",6.2
15,"Cc1ccc(NC(=O)c2ccnc(C(C)(C)O)c2)cc1-c1cc(N2CCOCC2)c(=O)n(C)c1 [Example 350, 2-(2-hydroxypropan-2-yl)-N-(4-methyl-3-(1-methyl-5-morpholino-6-oxo-1,6-dihydropyridin-3-yl)phenyl)isonicotinamide]",3.5
16,"Cc1ccc(NC(=O)c2cccc(C(C)(C)S(C)(=O)=O)c2)cc1-c1cc(N2CCOCC2)c(=O)n(C)c1 [Example 351, N-(4-methyl-3-(1-methyl-5-morpholino-6-oxo-1,6-dihydropyridin-3-yl)-phenyl)-3-(2-(methylsulfonyl)propan-2-yl)benzamide]",19.5

row,Structure (SMILES),IC50 [nM]
1,"CCc1cc(C(=O)Nc2ccc(C)c(-c3cc(N4CCOCC4)c(=O)n(C)c3)c2)ccn1 [Example 353, 2-ethyl-N-(4-methyl-3-(1-methyl-5-morpholino-6-oxo-1,6-dihydropyridin-3-yl)phenyl)isonicotinamide]",1.2
2,"Cc1ccc(NC(=O)c2ccnc(C3CC3)c2)cc1-c1cc(N2CCOCC2)c(=O)n(C)c1 [Example 354, 2-cyclopropyl-N-(4-methyl-3-(1-methyl-5-morpholino-6-oxo-1,6-dihydropyridin-3-yl)phenyl)isonicotinamide]",1
3,"Cc1ccc(NC(=O)c2ccnc(C(C)(C)F)c2)cc1-c1cc(N2CCOCC2)c(=O)n(C)c1 [Example 355, 2-(2-fluoropropan-2-yl)-N-(4-methyl-3-(1-methyl-5-morpholino-6-oxo-1,6-dihydropyridin-3-yl)phenyl)isonicotinamide]",2.5
4,"Cc1ccc(NC(=O)c2ccnc(C3COC3)c2)cc1-c1cc(N2CCOCC2)c(=O)n(C)c1 [Example 356, N-(4-methyl-3-(1-methyl-5-morpholino-6-oxo-1,6-dihydropyridin-3-yl)phenyl)-2-(oxetan-3-yl)isonicotinamide]",3.9
5,"Cc1ccc(NC(=O)c2ccnc(C3(C#N)CC3)c2)cc1-c1cc(N2CCOCC2)c(=O)n(C)c1 [Example 357, 2-(1-cyanocyclopropyl)-N-(4-methyl-3-(1-methyl-5-morpholino-6-oxo-1,6-dihydropyridin-3-yl)phenyl)isonicotinamide]",3.4
6,"Cc1ccc(NC(=O)c2cccc(CC#N)c2)cc1-c1cc(N2CCOCC2)c(=O)n(C)c1 [Example 359, 3-(cyanomethyl)-N-(4-methyl-3-(1-methyl-5-morpholino-6-oxo-1,6-dihydropyridin-3-yl)phenyl)benzamide]",5.5
7,"Cc1ccc(NC(=O)c2cnnc(C(C)(C)C#N)c2)cc1-c1cc(N2CCOCC2)c(=O)n(C)c1 [Example 360, 6-(2-cyanopropan-2-yl)-N-(4-methyl-3-(1-methyl-5-morpholino-6-oxo-1,6-dihydropyridin-3-yl)phenyl)pyridazine-4-carboxamide]",6
8,"Cc1ccc(NC(=O)c2cnnc(C(F)(F)F)c2)cc1-c1cc(N2CCOCC2)c(=O)n(C)c1 [Example 361, N-(4-methyl-3-(1-methyl-5-morpholino-6-oxo-1,6-dihydropyridin-3-yl)phenyl)-6-(trifluoromethyl)pyridazine-4-carboxamide]",2.8
9,"Cc1ccc(NC(=O)c2cnnc(C3CC3)c2)cc1-c1cc(N2CCOCC2)c(=O)n(C)c1 [Example 362, 6-cyclopropyl-N-(4-methyl-3-(1-methyl-5-morpholino-6-oxo-1,6-dihydropyridin-3-yl)phenyl)pyridazine-4-carboxamide]",2.9
10,"Cc1ccc(NC(=O)c2cnnc(C(C)(C)F)c2)cc1-c1cc(N2CCOCC2)c(=O)n(C)c1 [Example 363, 6-(2-fluoropropan-2-yl)-N-(4-methyl-3-(1-methyl-5-morpholino-6-oxo-1,6-dihydropyridin-3-yl)phenyl)pyridazine-4-carboxamide]",3.8
11,"Cc1ccc(NC(=O)c2cc(C(F)(F)F)ccn2)cc1-c1cc(N2CCOCC2)c(=O)n(C)c1 [Example 364, N-(4-methyl-3-(1-methyl-5-morpholino-6-oxo-1,6-dihydropyridin-3-yl)phenyl)-4-(trifluoromethyl)picolinamide]",2.1
12,"CCn1cc(C(=O)Nc2ccc(C)c(-c3cc(N4CCOCC4)c(=O)n(C)c3)c2)c(C)n1 [Example 365, 1-ethyl-3-methyl-N-(4-methyl-3-(1-methyl-5-morpholino-6-oxo-1,6-dihydropyridin-3-yl)phenyl)-1H-pyrazole-4-carboxamide]",85.9
13,"Cc1ccc(NC(=O)c2cn(C)nc2C)cc1-c1cc(N2CCOCC2)c(=O)n(C)c1 [Example 366, 1,3-dimethyl-N-(4-methyl-3-(1-methyl-5-morpholino-6-oxo-1,6-dihydropyridin-3-yl)phenyl)-1H-pyrazole-4-carboxamide]",100
14,"Cc1ccc(NC(=O)c2cn(C(C)C)nc2C)cc1-c1cc(N2CCOCC2)c(=O)n(C)c1 [Example 367, 1-isopropyl-3-methyl-N-(4-methyl-3-(1-methyl-5-morpholino-6-oxo-1,6-dihydropyridin-3-yl)phenyl)-1H-pyrazole-4-carboxamide]",12.6
15,"Cc1ccc(NC(=O)c2cc(C(F)(F)F)nn2C)cc1-c1cc(N2CCOCC2)c(=O)n(C)c1 [Example 369, 1-methyl-N-(4-methyl-3-(1-methyl-5-morpholino-6-oxo-1,6-dihydropyridin-3-yl)phenyl)-3-(trifluoromethyl)-1H-pyrazole-5-carboxamide]",53.1
16,"Cc1ccc(NC(=O)c2cc(C(C)C)on2)cc1-c1cc(N2CCOCC2)c(=O)n(C)c1 [Example 371, 5-isopropyl-N-(4-methyl-3-(1-methyl-5-morpholino-6-oxo-1,6-dihydropyridin-3-yl)phenyl)isoxazole-3-carboxamide]",0.8
